Results on 2 compounds are retold here after patent US6818228B1 (priority 1996, dated 2004).

Each structure is given as a SMILES string.

The conditions of data set [1]: B.E.T.
For data set [2] the following is noted: helium displacement.
Data set [3] is described as follows: Bulk density (tapped cylinder). The note with it: nearly dry material before granulation.

On to `O.O.O.O.O=C([O-])CC(O)(CC(=O)[O-])C(=O)[O-].O=C([O-])CC(O)(CC(=O)[O-])C(=O)[O-].[Ca+2].[Ca+2].[Ca+2]` [Pfizer calcium citrate tetrahydrate, calcium citrate tetrahydrate], for which the surface area result in data set [1] is listed as “about 10 m^2/g”. Besides, the true density entry in data set [2] was “about 2.0 g/cc”.

In the case of `O=C([O-])CC(O)(CC(=O)[O-])C(=O)[O-].O=C([O-])CC(O)(CC(=O)[O-])C(=O)[O-].[Ca+2].[Ca+2].[Ca+2]` [calcium citrate], the “surface area as fraction of that of commercial calcium citrate tetrahydrate” value in data set [1] was 1/10. Moreover, the “density (bulk)” value in data set [3] is given as 1.1-1.2 g/cc.
